The record followed here is US8178688B2, “Benzamidine derivatives, process for the preparation thereof and pharmaceutical composition comprising the same” (Dong Wha Pharmaceutical Co., Ltd., priority 2004, dated 2012).

In data set [1] the test system is osteoclast differentiation. The data set can be described thus: Inhibitory effects on osteoclast differentiation (co-culture of bone marrow cells with osteoblast, TRAP staining). In kind it is cell-based, mice. The settings on record: Mus musculus, Osteoclast, 168 h, co-culture of bone marrow cells and osteoblast, 7 days, TRAP-positive osteoclasts versus controls, read-out: % inhibitory activity on osteoclastogenesis. Summed up: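 Bone marrow cells from 6–8-week male ddY mice co-cultured with neonatal ICR mouse calvarial osteoblasts in α-MEM/FBS with dexamethasone (10^−7M) and vitamin D3 (10^−8M) for 7 days, compound and medium renewed every 2–3 days. TRAP-positive cells with ≥3 nuclei counted; inhibition given as percent of control.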

In another data set the test system is cells. The data set is described as follows: Cytotoxicity test (MTT). In kind it is cell-based. The settings on record: 10^−6M, 72 hrs, compared with the control group. The method in brief:
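Benzamidine derivatives were checked for cytotoxicity with an MTT assay. Test substances were diluted in a suitable solvent to 10^−2M. Cells were seeded at 1×10^4 cell/100 μL per well in 96-well microplates and grown for 72 hrs. During the final 4 hrs, 25 μL of MTT (2 mg/mL in PBS) was added. Plates were then centrifuged, the medium removed, formazan dissolved in 100 μL DMSO, and absorbance read at 540 nm.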

The subject of data set [2] is mouse models of ovalbumin-induced asthma. The data set is described as follows: Therapeutic effect in mouse model of asthma induced with ovalbumin (lung weight, total leukocytes in blood and BALF). The settings on record: for Changes on the lung weight, Absolute: 200 mg/kg oral once a day from sensitization, vehicle control 0.134 ± 0.012, sham 0.110 ± 0.009; for Changes on the lung weight, Relative (%) / Total leukocytes in peripheral blood (×10^3/1 mm^3) / Total leukocytes in BALF (×10^5/1 ml): 200 mg/kg oral once a day; for Changes on the lung weight, Relative (%): % of body weight, vehicle control 0.780 ± 0.103, sham 0.694 ± 0.049; for Total leukocytes in peripheral blood (×10^3/1 mm^3): vehicle control 14.49 ± 0.88, sham 10.27 ± 0.93; for Total leukocytes in BALF (×10^5/1 ml): vehicle control 75.68 ± 4.67, sham 51.75 ± 2.15. In kind it is in vivo, C57BL/6 mice. As to the method:
The benzamidine compounds were assated for therapeutic effect on allergic inflammation in mouse models of ovalbumin-induced asthma. Starting on the day of immunization the benzamidine compounds were dosed for 17 consecutive days. The experimental animals were re-exposed to ovalbumin 14 days after the sensitization and then sacrificed 3 days after the re-exposure. Changes in lung weight, cellular components of peripheral blood and bronchoalveolar lavage fluid, and lung histopathology were observed.
A total of 110 female C57BL/6 mice (7-week-old, SLC, Japan) were adapted to a laboratory environment for 6 days before being used in earnest experiments. While being housed at a densirt of five in a plastic cage, the experimental animals were breed in a breeding room with controlled temperature (20-25° C.) and humidity (30-35%). Under light-dark cycles of 12 hours, mice were allowed to have free access to feedstuff and tap water. While asthma was induced in 100 mice by ovalbumin, 10 mice were used as a non-treated group.
200 mg of benzamidine compounds (Methansulfonic acid or Hydrochloride) were completely dissolved in 5 ml of sterilized distilled water. The benzamidine compound in the solutions was orally administered at doses of 200 mg per kg of body weight once a day from the day of the sensitization with ovalbumin. The control group was administered with equal volumes of sterilized distilled water in the same manner.
A solution of 200 μg of ovalbumin (Grade VI; Sigma, st. Louis, Mo., USA) and 180 mg of aluminium hydroxide (Al(OH)3, dried powder gel; Aldrich, Milwaukee, USA) in 4 ml of physiological saline was allowed to stand at 4° C. overnight and was administered to the experimental animals (200 μl, abdominal injection) for sensitization. As for the non-treated group, a solution of only aluminium hydroxide in saline was injected. 15 days after sensitization, a 1.5% ovalbumin solution was sprayed in air using a nebulizer, followed by exposing the experimental animals to the spray for 10 min to induce asthma therein. The non-treated group was exposed only to saline in the same manner. All the experimental animals were sacrificed 3 days after the exposure.
On the final day of experiment, the lungs were separated form adjacent organs. The removed lungs were weight among individual animals, the relative weight of the lungs was calculated as a percentage of body weight using the following Equation 3. Relative weight of Lung(%)=(Absolute lung weight/Body weight)×100 Equation 3
On the final day of experiment, all the experimental animals were etherized and underwent laparotomy to expose the abdominal vena cava, from which 1 ml of blood was the taken. Using a hemocytometer, a blood sample was measured for total leukocyte counts in a ×10^3/1 mm^3 units.
On the final day of experiment, secretions present in bronchi and alveola were examined for cyrological constitution. After veing etherized, the experimental animals were operated to open the cervical region and the thorax. The jugular vein was allowed to bleed, followed by endotracheal intubation. 3 ml of phosphate buffered saline was injected twice through the tube and the thorax was massaged for 30 sec to obtain cell suspension from the lungs. Using a hemocytometer, a […] was measured for total leukocyte counts in a ×10^5/1 ml units.

A further data set deals with ovariectomized ddY mouse. The data set can be described thus: Therapeutic effect in the ovariectomized osteoporetic mouse model (trabecular bone volume of the femur). In kind it is in vivo, ddY mice. The settings on record: Mus musculus, 672 h, 50 mg/kg/day oral gavage for 4 weeks from 4 weeks after ovariectomy, salts (methansulfonic acid or HCl), read-out: Changes on TBV (% changes vs vehicle control). As to the method:
The therapeutic effects of each benzamidine derivates were evaluated on the ovariectomized ddY mouse. Benzamidine derivates were dosed from 4 weeks after operation for 4 weeks and the changes on the trabecular bone volume (TBV) of the femur were observed via histomorphometry.
Female ddY mice (6-wk old upon receipt, SLC, Japan) were used after acclimatization for 7 days. Animals were allocated 5 per polycarbonate cage in a temperature (20-25° C.) and humidity (30-35%) controlled room. Light:dark cycle was 12 hr:12 hr and feed (Samyang, Korea) and water were supplied free to access.
Salts of benzamidine derivates (Methansulfonic acid or HCl) were used for the test substances of this invention. Test substances are dissolved and/or suspended in injectable distilled water and administered at a dosage volume of 10 ml/kg by oral gavage. All test substances are dosed from 4 weeks after operation for 4 weeks at 50 mg/kg/day.
To induce estrogen-deficient osteoporosis, bilateral ovaries are removed and then closed by routine methods. Operation was conduct under Ketamine hydrochloride and xylazine hydrochloride anesthesia.
The left femur of each mouse were separated at sacrifice, and fixed in 10% neutral buffered formalin (NBF), then decalcified in decalcifying solution (24.4% formic acid, and 0.5N sodium hydroxide) for 5 days (mixed decalcifying solution was exchanges once a day for 5 days). After the dexalcification, the femur was embedded in paraffin, sectioned (3˜4 μm) and stained with hematoxylin-eosin stain.
TBV was calculated using automated image analysis (analySIS Image Processing; SIS, Germany) under magnification of ×200 in the uniform area of trochlea epiphyseal regions (growth plate regions were excluded) of prepared histological specimens. TBV was calculated as percentage (%) levels.
The changes of TBV compared to that of vehicle control are calculated as following Equation 1 to help the understanding of the efficacy of test substances. Percentage changes=[((TBV of a−TBV of b)/TBV of b)×100] Equation 1

Where two headings read alike, the source gives them in different places.

As a reminder, the melting point is the temperature of the solid-liquid transition. For the molecule `Cc1nc(-c2ccc(OCCCCCOc3ccc(C(=N)NO)cc3)cc2)cs1` [Example 3, N-hydroxy-4-(5-[4-(2-methyl-1,3-thiazol-4-yl)phenoxy]pentoxy)-benzamidine], the melting point is 139 to 140 °C. Also, in data set [1] (1 μm), the inhibition at 1 µM stood at 41.4%.

In turn, `CC(C)c1nc(-c2ccc(OCCCCCOc3ccc(C(=N)NO)cc3)cc2)cs1` [Example 5, N-hydroxy-4-(5-[4-(2-isopropyl-1,3-thiazol-4-yl)phenoxy]pentoxy)-benzamidine] registered a melting point of 95 to 129 °C. Besides, in data set [1] (1 μm), the inhibition at 1 µM came to 87.5%.

In turn, `N=C(NO)c1ccc(OCCCCCOc2ccc(-c3csc(-c4ccccc4)n3)cc2)cc1` [Example 6, N-hydroxy-4-(5-[4-(2-phenyl-1,3-thiazol-4-yl)phenoxy]pentoxy)-benzamidine] gave a melting point of 133 to 141 °C.

The molecule `Cc1nc(-c2ccc(OCCCCCOc3ccc(C(=N)NO)cc3)cc2)c(C)s1` [Example 10, N-hydroxy-4-(5-[4-(2,5-dimethyl-1,3-thiazol-4-yl)phenoxy]pentoxy)-benzamidine] displayed a melting point of 128 to 133 °C. Further, the inhibition at 1 µM in data set [1] (1 μm) worked out at 1.8%.

On to `CCc1nc(-c2ccc(OCCCCCOc3ccc(C(=N)NO)cc3)cc2)c(C)s1` [Example 11, N-hydroxy-4-(5-[4-(2-ethyl-5-methyl-1,3-thiazol-4-yl)phenoxy]pentoxy)-benzamidine], for which the melting point was in the range of 127 to 131 °C. In addition, the inhibition at 1 µM in data set [1] (1 μm) worked out at 53.2%. Besides, the “Survival rates of the cells” value in the data set on cells (MC3T3-E1 cells) is on record as 87.2%. For the same molecule, the “Survival rates of the cells” value in the data set with cells (ST2 cells) is on record as 33.1%.

On to `Cc1sc(-c2ccccc2)nc1-c1ccc(OCCCCCOc2ccc(C(=N)NO)cc2)cc1` [Example 12, N-hydroxy-4-(5-[4-(5-methyl-2-phenyl-1,3-thiazol-4-yl)phenoxy]pentoxy)-benzamidine], for which the melting point lay within 124 to 130 °C.

In turn, `CCc1nc(-c2ccc(OCCCCCOc3ccc(C(=N)NO)cc3)cc2)c(CC)s1` [Example 18, N-hydroxy-4-(5-[4-(2,5-diethyl-1,3-thiazol-4-yl)phenoxy]pentoxy)-benzamidine] yielded a melting point of 121 to 127 °C. Besides, in data set [1] (1 μm), the inhibition at 1 µM is 24.8%.

With `CCc1sc(-c2ccccc2)nc1-c1ccc(OCCCCCOc2ccc(C(=N)NO)cc2)cc1` [Example 20, N-hydroxy-4-(5-[4-(5-ethyl-2-phenyl-1,3-thiazol-4-yl)phenoxy]pentoxy)-benzamidine], the melting point was 83 to 86 °C. In addition, the inhibition at 1 µM in data set [1] (1 μm) was 35.6%.

`CCCCc1sc(C)nc1-c1ccc(OCCCCCOc2ccc(C(=N)NO)cc2)cc1` [Example 30, N-hydroxy-4-(5-[4-(5-butyl-2-methyl-1,3-thiazol-4-yl)phenoxy]pentoxy)-benzamidine] displayed a melting point of 138 to 140 °C. Besides, in data set [1] (1 μm), the inhibition at 1 µM was determined as 47.7%.

In turn, `CCCCc1sc(CC)nc1-c1ccc(OCCCCCOc2ccc(C(=N)NO)cc2)cc1` [Example 31, N-hydroxy-4-(5-[4-(5-butyl-2-ethyl-1,3-thiazol-4-yl)phenoxy]pentoxy)-benzamidine] gave a melting point of 80 to 84 °C. Besides, the inhibition at 1 µM in data set [1] (1 μm) was found to be 35.6%.

For the molecule `CCCCc1sc(-c2cccnc2)nc1-c1ccc(OCCCCCOc2ccc(C(=N)NO)cc2)cc1` [Example 34, N-hydroxy-4-(5-[4-(5-butyl-2-pyridin-3-yl-1,3-thiazol-4-yl)phenoxy]pentoxy)-benzamidine], the melting point is 107 to 118 °C. In data set [1] (1 μm), the inhibition at 1 µM came out at 28.7%.

`CC(C)c1nc(-c2ccc(OCCCCCOc3ccc(C(=N)NO)cc3)cc2)c(Cc2ccccc2)s1` [Example 39, N-hydroxy-4-(5-[4-(5-benzyl-2-isopropyl-1,3-thiazol-4-yl)phenoxy]pentoxy)-benzamidine]: the melting point lay in the range of 108 to 120 °C. In addition, in data set [1] (1 μm), the inhibition at 1 µM turned out to be 37.5%.

For `CC(C)c1sc(N2CCOCC2)nc1-c1ccc(OCCCCCOc2ccc(C(=N)NO)cc2)cc1` [Example 169, N-hydroxy-4-(5-[4-(5-isopropyl-2-morpholino-1,3-thiazol-4-yl)phenoxy]pentoxy)-benzamidine], in data set [2], the “Changes on the lung weight, Absolute” value was 0.113 ± 0.003 g; the “Changes on the lung weight, Relative (%)” value is recorded as 0.696 ± 0.032 %; the “Total leukocytes in peripheral blood (×10^3/1 mm^3)” value was 13.20 ± 2.22 ×10^3/1 mm^3; the “Total leukocytes in BALF (×10^5/1 ml)” value is 72.25 ± 7.95 ×10^5/1 ml. In addition, in data set [1] (1 m), the inhibition at 1 µM is 83.3%. In addition, the change in vivo at 50 mg/kg in the data set on ovariectomized ddY mouse stood at 186%.

Turning to `Cc1nc(-c2ccc(OCc3ccc(COc4ccc(C(=N)NO)cc4)cc3)cc2)c(C(C)C)s1` [Example 185, N-hydroxy-4-(4-[4-(5-isopropyl-2-methyl-1,3-thiazol-4-yl)-phenoxymethyl]-benzyloxy)-benzamidine], in data set [2], the “Changes on the lung weight, Absolute” value turned out to be 0.116 ± 0.003 g; the “Changes on the lung weight, Relative (%)” value worked out at 0.720 ± 0.061%; the “Total leukocytes in peripheral blood (×10^3/1 mm^3)” value is listed as 11.90 ± 1.45 # ×10^3/1 mm^3; the “Total leukocytes in BALF (×10^5/1 ml)” value is 66.47 ± 7.41 # ×10^5/1 ml. For the same molecule, the inhibition at 1 µM in data set [1] (1 m) was 89.4%. The change in vivo at 50 mg/kg in the data set with ovariectomized ddY mouse was 152%.

On to `Cc1nc(-c2ccc(OCCCCCOc3ccc(C(=N)NO)c(F)c3)cc2)c(C(C)C)s1` [Example 187, N-hydroxy-2-fluoro-4-(5-[4-(5-isopropyl-2-methyl-1,3-thiazol-4-yl)-phenoxy]-pentoxy)-benzamidine], for which, in data set [1] (1 m), the inhibition at 1 µM came to 92.5%. In the data set on ovariectomized ddY mouse, the change in vivo at 50 mg/kg turned out to be 117%.

On to `Cc1nc(-c2ccc(OCCCCCOc3ccc(C(=N)NO)c(O)c3)cc2)c(C(C)C)s1` [Example 188, 2,N-dihydroxy-4-(5-[4-(5-isopropyl-2-methyl-1,3-thiazol-4-yl)-phenoxy]-pentoxy)-benzamidine], for which the inhibition at 1 µM in data set [1] (1 m) turned out to be 82.6%. In the data set with ovariectomized ddY mouse, the change in vivo at 50 mg/kg was found to be 92%.
